# Target: T1, human calcium-sensing receptor (CaSR) (Homo sapiens, UniProt P41180)
# T1 construct: expressed in transfected cells
# T1 sequence (P41180 20-1078): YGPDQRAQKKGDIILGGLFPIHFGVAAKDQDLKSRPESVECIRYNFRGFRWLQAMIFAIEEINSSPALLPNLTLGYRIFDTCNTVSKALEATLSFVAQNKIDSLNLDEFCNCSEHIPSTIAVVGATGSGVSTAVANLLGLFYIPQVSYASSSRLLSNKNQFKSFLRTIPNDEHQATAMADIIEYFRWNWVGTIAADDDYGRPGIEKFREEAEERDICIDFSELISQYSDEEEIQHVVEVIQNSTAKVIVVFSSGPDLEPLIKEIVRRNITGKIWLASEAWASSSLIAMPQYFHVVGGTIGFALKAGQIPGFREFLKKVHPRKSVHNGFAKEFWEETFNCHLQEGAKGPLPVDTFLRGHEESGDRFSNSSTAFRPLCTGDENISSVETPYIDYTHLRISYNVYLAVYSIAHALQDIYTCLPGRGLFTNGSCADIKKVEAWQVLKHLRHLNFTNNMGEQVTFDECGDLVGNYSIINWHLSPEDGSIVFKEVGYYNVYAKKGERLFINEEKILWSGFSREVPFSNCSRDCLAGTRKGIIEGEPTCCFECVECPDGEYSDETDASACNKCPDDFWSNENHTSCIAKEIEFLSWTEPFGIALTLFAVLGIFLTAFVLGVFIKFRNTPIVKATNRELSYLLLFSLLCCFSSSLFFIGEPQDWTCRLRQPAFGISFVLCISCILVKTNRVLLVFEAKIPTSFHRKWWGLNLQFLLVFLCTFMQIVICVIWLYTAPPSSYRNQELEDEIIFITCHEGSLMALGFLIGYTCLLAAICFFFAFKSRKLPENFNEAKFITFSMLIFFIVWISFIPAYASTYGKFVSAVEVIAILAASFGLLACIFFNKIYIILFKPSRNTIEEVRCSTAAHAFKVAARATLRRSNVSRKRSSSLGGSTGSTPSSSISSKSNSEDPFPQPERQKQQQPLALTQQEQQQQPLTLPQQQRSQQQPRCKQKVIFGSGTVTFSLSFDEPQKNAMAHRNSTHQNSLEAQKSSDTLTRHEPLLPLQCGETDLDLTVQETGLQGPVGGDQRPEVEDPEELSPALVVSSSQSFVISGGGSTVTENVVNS
# Experiment: Inhibitory activity on calcium-sensing receptor (CaSR), intracellular calcium increase as indicator (FLIPR, CHO/hCaSR)
# Assay type: cell-based
# Conditions: CHO cells stably expressing human CaSR; inhibition of intracellular Ca increase induced by extracellular CaCl2
# Procedure: Evaluation of inhibitory activity on calcium-sensing receptor (CaSR) using intracellular calcium increase as an indicator
# The preparation which is prepared by adding CHO/hCaSR to F12 medium (manufactured by Invitrogen) containing 10% fetal bovine serum to have 2×10^5 cells/mL was applied to a 384-well in an amount of 50 μL/well, and then incubated overnight in a CO2 incubator. The culture supernatant was completely removed, the assay buffer (20 mM HEPES, HBSS (Ca and Mg free) containing 2.5 mM probenecid, pH 7.4) containing Calcium 3 (manufactured by Molecular Devices), i.e., a fluorescent intracellular calcium indicator, was added thereto in an amount of 25 μL/well, and the mixture was maintained for 1 hour in a CO2 incubator. Meanwhile, Calcium 3 was prepared according to the protocol enclosed in FLIPR Calcium 3 Assay Kit (manufactured by Molecular Devices). After maintaining it for 1 hour, a solution in which the test compound is prepared to have 2.1 to 20,000 nM (final concentration of 1.05 to 10,000 nM) by an assay buffer was added thereto in an amount of 25 μL/well, and maintained for 15 minutes in a CO2 incubator. Then, the CaCl2 solution prepared to have […] by using the assay buffer was added in an amount of 25 μL/well, and the resulting intracellular Ca increase (i.e., fluorescence intensity) was measured over time using a fluorescence imaging plate reader (FLIPR, manufactured by Molecular Devices). From the data obtained, the difference between the fluorescence intensity before the addition of CaCl2 solution and the maximum fluorescence intensity after the addition of CaCl2 solution was calculated, and the 50% inhibition concentration (IC50) of the test compound was obtained.
row,IC50 [µM],Structure (SMILES)
1,≤ 3.21,C[C@@H](OC[C@H](O)CN1CCC[C@H]1Cc1ccc(Cl)c(F)c1)c1cccc(Cl)c1CCC(=O)O [Example 153]
2,≤ 3.35,Cc1ccc(C[C@@H]2CCCN2C[C@@H](O)CO[C@H](C)c2cccc(F)c2CCC(=O)O)cc1Cl [Example 90]
3,≤ 3.1,C[C@@H](OC[C@H](O)CN1CCC[C@H]1Cc1ccc(Cl)c(Cl)c1)c1cc(F)cc(F)c1CCC(=O)O [Example 106]
4,≤ 3.27,COc1cccc([C@@H](C)OC[C@H](O)CN2CCC[C@H]2Cc2ccc(C)c(Cl)c2)c1CCC(=O)O [Example 167]
5,≤ 3.35,Cc1ccc([C@@H](C)OC[C@H](O)CN2CCC[C@H]2Cc2ccc(Cl)c(F)c2)c(CCC(=O)O)c1 [Example 128]
6,≤ 3.35,Cc1ccc(C[C@@H]2CCCN2C[C@@H](O)CO[C@H](C)c2cc(Cl)ccc2CCC(=O)O)cc1F [Example 79]
7,≤ 3.24,Cc1ccc(C[C@@H]2CCCN2C[C@@H](O)CO[C@H](C)c2ccc(Cl)cc2CCC(=O)O)cc1Cl [Example 127]
8,≤ 3.05,CCc1cc(C[C@@H]2CCCN2C[C@@H](O)CO[C@H](CC)c2cc(F)cc(F)c2CCC(=O)O)ccc1Cl [Example 111]
9,≤ 3.35,Cc1ccc(C[C@@H]2CCCN2C[C@@H](O)CO[C@H](C)c2ccc(Cl)cc2CCC(=O)O)cc1F [Example 78]
10,≤ 3.11,CC[C@@H](OC[C@H](O)CN1CCC[C@H]1Cc1ccc(Cl)c(F)c1)c1cc(F)cc(F)c1CCC(=O)O [Example 141]
11,≤ 3.23,Cc1ccc(C[C@@H]2CCCN2C[C@@H](O)CO[C@H](C)c2cc(F)cc(F)c2CCC(=O)O)cc1Cl [Example 132]
12,≤ 3.15,Cc1ccc(C[C@@H]2CCCN2C[C@@H](O)CO[C@H](C)c2cc(F)c(F)cc2CCCCC(=O)O)cc1F [Example 30]
13,≤ 3.24,CC[C@@H](OC[C@H](O)CN1CCC[C@H]1Cc1ccc(C)c(F)c1)c1cc(F)cc(F)c1CCC(=O)O [Example 155]
14,≤ 3.38,Cc1ccc(C[C@@H]2CCCN2C[C@@H](O)CO[C@H](C)c2cccc(C)c2CCC(=O)O)cc1Cl [Example 169]

# The next lines start with the molecule.
row,Structure (SMILES),IC50 [µM]
1,CCC[C@@H](OC[C@H](O)CN1CCC[C@H]1Cc1ccc(C)c(F)c1)c1ccc(C)cc1CCC(=O)O [Example 64],≤ 3.29
2,Cc1ccc(C[C@@H]2CCCN2C[C@@H](O)CO[C@H](C)c2cc(C(F)(F)F)ccc2CCCCC(=O)O)cc1F [Example 60],≤ 2.97
3,CC[C@@H](OC[C@H](O)CN1CCC[C@H]1Cc1ccc(Cl)c(Cl)c1)c1ccc(Cl)cc1CCC(=O)O [Example 100],≤ 3.03
4,CC[C@@H](OC[C@H](O)CN1CCC[C@H]1Cc1ccc(Cl)c(F)c1)c1cccc(OC)c1CCC(=O)O [Example 173],≤ 3.15
5,Cc1ccc(C[C@@H]2CCCN2C[C@@H](O)CO[C@@H](c2ccccc2CCC(=O)O)C2CC2)cc1F [Example 29],≤ 3.41
6,CCc1cc(C[C@@H]2CCCN2C[C@@H](O)CO[C@H](C)c2cccc(C)c2CCC(=O)O)ccc1Cl [Example 163],≤ 3.28
7,CC[C@@H](OC[C@H](O)CN1CCC[C@H]1Cc1ccc(C)c(F)c1)c1cccc(Cl)c1CCC(=O)O [Example 112],≤ 3.25
8,COc1cccc([C@@H](C)OC[C@H](O)CN2CCC[C@H]2Cc2ccc(C)c(F)c2)c1CCCCC(=O)O [Example 42],≤ 3.19
9,CCC[C@@H](OC[C@H](O)CN1CCC[C@H]1Cc1ccc(C)c(F)c1)c1cccc(F)c1CCC(=O)O [Example 63],≤ 3.27
10,"Cc1ccc(C[C@@H]2CCCN2C[C@@H](O)CO[C@H](C)c2ccccc2/C=C/C(=O)O)cc1F [Example 1, (2E)-3-{2-[(1R)-1-({(2R)-3-[(2S)-2-(3-Fluoro-4-methylbenzyl)pyrrolidin-1-yl]-2-hydroxypropyl}oxy)ethyl]phenyl}prop-2-enoic acid]",≤ 3.62
11,C[C@@H](OC[C@H](O)CN1CCC[C@H]1Cc1ccc(F)c(Cl)c1)c1ccccc1CCC(=O)O [Example 83],≤ 3.45
12,CC[C@@H](OC[C@H](O)CN1CCC[C@H]1Cc1ccc(Cl)c(F)c1)c1cccc(F)c1CCC(=O)O [Example 139],≤ 3.23
13,Cc1ccc(C[C@@H]2C[C@@H](O)CN2C[C@@H](O)CO[C@H](C)c2ccccc2CCC(=O)O)cc1F [Example 49],≤ 3.48
14,CCc1cc(C[C@@H]2CCCN2C[C@@H](O)CO[C@H](CC)c2ccc(Cl)cc2CCC(=O)O)ccc1Cl [Example 101],≤ 3.06
15,CCc1cc(C[C@@H]2CCCN2C[C@@H](O)CO[C@H](CC)c2ccc(C)cc2CCC(=O)O)ccc1Cl [Example 103],≤ 3.19
16,"Cc1ccc(C[C@@H]2CCCN2C[C@@H](O)CO[C@H](C)c2ccccc2CCc2nn[nH]n2)cc1F [Example 178, (2R)-1-[(2S)-2-(3-Fluoro-4-methylbenzyl)pyrrolidin-1-yl]-3-[(1R)-1-{2-[2-(2H-tetrazol-5-yl)ethyl]phenyl}ethoxy]propan-2-ol]",≤ 3.12
17,CCc1cc(C[C@@H]2CCCN2C[C@@H](O)CO[C@H](C)c2ccc(C)cc2CCC(=O)O)ccc1Cl [Example 98],≤ 3.28

row,Structure (SMILES),IC50 [µM]
1,CC[C@@H](OC[C@H](O)CN1CCC[C@H]1Cc1ccc(C)c(F)c1)c1cccc(C)c1CCC(=O)O [Example 47],≤ 3.39
2,C[C@@H](OC[C@H](O)CN1CCC[C@H]1Cc1ccc(Cl)c(Cl)c1)c1ccccc1CCC(=O)O [Example 88],≤ 3.33
3,C[C@@H](OC[C@H](O)CN1CCC[C@H]1Cc1ccc(Cl)c(Cl)c1)c1cccc(Cl)c1CCC(=O)O [Example 151],≤ 3.11
4,Cc1ccc(C[C@@H]2CCCN2C[C@@H](O)CO[C@H](C)c2cccc(OC(C)C)c2CCC(=O)O)cc1F [Example 73],≤ 3.19
5,C[C@@H](OC[C@H](O)CN1CCC[C@H]1Cc1ccc(Cl)c(F)c1)c1ccccc1CCC(=O)O [Example 159],≤ 3.45
6,"Cc1ccc(C[C@@H]2CCCN2C[C@@H](O)CO[C@H](C)c2ccccc2CCC(=O)O)cc1F [Example 2, 3-{2-[(1R)-1-({(2R)-3-[(2S)-2-(3-Fluoro-4-methylbenzyl)pyrrolidin-1-yl]-2-hydroxypropyl}oxy)ethyl]phenyl}propanoic acid]",≤ 3.61
7,C[C@@H](OC[C@H](O)CN1CCC[C@H]1Cc1ccc(F)c(F)c1)c1ccccc1CCC(=O)O [Example 38],≤ 3.58
8,CCc1cccc(C[C@@H]2CCCN2C[C@@H](O)CO[C@H](C)c2ccccc2CCC(=O)O)c1 [Example 39],≤ 3.64
9,CC[C@@H](OC[C@H](O)CN1CCC[C@H]1Cc1ccc(C)c(F)c1)c1cc(F)ccc1CCC(=O)O [Example 43],≤ 3.36
10,Cc1ccc(C[C@@H]2CCCN2C[C@@H](O)CO[C@H](C)c2ccc(Cl)cc2CCCCC(=O)O)cc1F [Example 81],≤ 3.16
11,Cc1ccc(C[C@@H]2CCCN2C[C@@H](O)COC(C)c2c(C)cccc2CCC(=O)O)cc1F (some centres unmarked) [Example 32],≤ 3.5
12,Cc1ccc(C[C@@H]2CCCN2C[C@@H](O)CO[C@H](C)c2cccc(F)c2CCCCC(=O)O)cc1F [Example 58],≤ 3.27
13,C[C@@H](OC[C@H](O)CN1CCC[C@H]1Cc1ccc(Cl)c(F)c1)c1ccc(Cl)cc1CCC(=O)O [Example 131],≤ 3.21
14,CCc1cc(C[C@@H]2CCCN2C[C@@H](O)CO[C@H](CC)c2cc(F)c(C)cc2CCC(=O)O)ccc1Cl [Example 119],≤ 3.08
15,CC[C@@H](OC[C@H](O)CN1CCC[C@H]1Cc1ccc(Cl)c(Cl)c1)c1cc(F)c(C)cc1CCC(=O)O [Example 118],≤ 3.04
16,CCC[C@@H](OC[C@H](O)CN1CCC[C@H]1Cc1ccc(C)c(F)c1)c1cccc(Cl)c1CCC(=O)O [Example 125],≤ 3.16
